The subject of the test is CXCR4 selector in IL2RG locus, CD34+ cells. Nature of the test: SMArT-D in CD34+ cells, IL2RG locus, CXCR4 selector. The format is cell-based, human. The settings on record: lower dose (80 nM), after washout.

Procedure: CD34+ cells were edited according to a previously optimized protocol (Schiroli et al., 2017). Briefly, 5×10^5 CD34+ cells/ml were stimulated in serum-free StemSpan medium (StemCell Technologies) supplemented with penicillin, streptomycin, glutamine, 1 μM SR-1 (Biovision), 50 μM UM171 (STEMCell Technologies), 10 μM PGE2 added only at the beginning of the culture (Cayman), and human early-acting cytokines (SCF 100 ng/ml, Flt3-L 100 ng/ml, TPO 20 ng/ml, and IL-6 20 ng/ml; all purchased from Peprotech). After 3 days of pre-stimulation, cells were washed with PBS and electroporated using P3 Primary Cell 4D-Nucleofector X Kit and program EO-100 (Lonza). Cells were electroporated with 2.5-1.25 μM of RNPs. Transduction with AAV6 was performed at a dose of 1×10^4 vg/cell 15′ after electroporation. […] Gene editing efficiency was measured from cultured cells in vitro 3 days after electroporation by flow cytometry measuring the percentage of cells expressing the GFP/truncated NGFR/CXCR4 marker or by digital droplet PCR analysis designing primers and probe on the junction between the vector sequence and the targeted locus and on control sequences utilized as normalizer.

Regarding `C[C@H]1c2cccc(O)c2C(=O)C2=C(O)[C@]3(O)C(=O)C(C(N)=O)=C(O)[C@@H](N(C)C)[C@@H]3[C@@H](O)[C@@H]21` [doxycycline], the “CXCR4-overexpressing cells in the most primitive compartment” value is given as “up to 13%”.

Source of the values: patent US20220056484A1, “SELECTION BY MEANS OF ARTIFICIAL TRANSACTIVATORS” (Ospedale San Raffaele S.R.L., priority 2018, published 2022).
